For one assay, the target named is T1, full-length human PHD2 (Homo sapiens, UniProt Q9GZT9).
T1 construct: The PHD2 construct contained amino acids 1 to 426 of PHD2; His tag (N, cleaved yes); TEV protease cleavage site (N, cleaved yes); host or cells: Sf9 insect cells (baculovirus)
Briefly: TR-FRET assay for PHD enzymes, PHD2. It counts as biochemical. Conditions: read-out: PHD2 IC5 0. On the procedure: (§1) The resulting proximity of the donor fluorophore complex, monoclonal antibody anti-6His-Terbium (Tb)-cryptate Gold, bound to the His-tagged VHL protein, EloB, EloC complex (His-VBC) and the acceptor fluorophore, SA-D2 complex, bound to HIF-1α-hydroxyproline results in a fluorescence resonance energy transfer signal that can be detected and quantified
(§2) For this, 5 μL PHD inhibitor compound was serially diluted with dilution buffer (50 mM HEPES [4-(2-hydroxyethyl)-1-piperazineethanesulfonic acid] pH 7.5, 50 mM sodium chloride [NaCl], 0.01% Tween-20, 0.01% purified bovine serum albumin [BSA]) and mixed with 5 μL PHD enzyme mix prepared as a 4× concentrate in the dilution buffer containing PHD enzyme (60 nM PHD1, 20 nM PHD2, 140 nM PHD3), 40 μM ferrous ammonium sulfate (FAS), 4 mM sodium (Na) ascorbate.
(§3) The IC50 values (mean, standard deviation, standard error of the mean, geometric mean and 95% confidence interval) were determined using a four-parameter curve-fit using GraphPad Prism 7.0 (GraphPad, La Jolla, Calif., USA) and represent the compound concentration plotted against the calculated ratio of 665 nm and 615 nm.

The next assay concerns the target T2, full-length human PHD1 (Homo sapiens, UniProt Q96KS0).
T2 construct: FLAG (N); purchased Active Motif (Carlsbad, Calif., USA) 81064; host or cells: baculovirus expression system
Briefly: TR-FRET assay for PHD enzymes, PHD1. It counts as biochemical.
Source text: as §1
Recombinant human PHD1 protein (catalog #81064, Lot #24717001) was purchased from Active Motif (Carlsbad, Calif., USA). PHD1 was expressed in a baculovirus expression system as the full-length protein (NCBI accession number NP_542770.2) with an N-terminal FLAG tag (molecular weight 44.9 kDa). Purity (>90%) was assessed by SDS-PAGE.
as §2, §3

Structures are written as SMILES.

T2 sequence (Q96KS0 whole entry): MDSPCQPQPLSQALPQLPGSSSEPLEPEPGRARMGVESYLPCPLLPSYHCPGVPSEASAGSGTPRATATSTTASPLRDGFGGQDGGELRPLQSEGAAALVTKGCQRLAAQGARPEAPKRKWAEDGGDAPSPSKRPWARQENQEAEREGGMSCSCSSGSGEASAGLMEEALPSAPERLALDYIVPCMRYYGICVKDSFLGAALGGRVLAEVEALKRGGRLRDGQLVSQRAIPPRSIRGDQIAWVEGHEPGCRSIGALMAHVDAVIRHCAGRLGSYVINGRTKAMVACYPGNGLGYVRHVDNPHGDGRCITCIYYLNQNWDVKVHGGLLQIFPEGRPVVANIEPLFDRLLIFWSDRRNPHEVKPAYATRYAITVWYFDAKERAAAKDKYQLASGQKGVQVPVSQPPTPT
T1 sequence (Q9GZT9 whole entry, the tested form may be a part): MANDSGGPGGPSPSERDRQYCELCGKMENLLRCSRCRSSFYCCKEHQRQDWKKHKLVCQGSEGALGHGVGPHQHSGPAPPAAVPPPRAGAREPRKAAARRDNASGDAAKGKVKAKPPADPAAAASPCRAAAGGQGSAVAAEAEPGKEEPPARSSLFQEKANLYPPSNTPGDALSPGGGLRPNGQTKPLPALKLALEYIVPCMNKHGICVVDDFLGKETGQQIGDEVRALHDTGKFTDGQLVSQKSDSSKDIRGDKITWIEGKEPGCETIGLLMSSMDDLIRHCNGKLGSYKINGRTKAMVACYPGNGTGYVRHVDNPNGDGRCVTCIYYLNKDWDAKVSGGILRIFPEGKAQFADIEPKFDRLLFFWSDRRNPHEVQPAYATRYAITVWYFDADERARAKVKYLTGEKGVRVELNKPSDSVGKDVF

`Cc1ccc(-c2cnn(-c3ccc(C(=O)OC(C)(C)C)cn3)c2O)cc1` [Compound 1, Tert-butyl 6-(5-hydroxy-4-(p-tolyl)-1H-pyrazol-1-yl)nicotinate]: the values for the IC50 on full-length human PHD2 and against full-length human PHD1 were 1000 to 10000 nM and 100 to 1000 nM, respectively.
For `CC(C)(C)OC(=O)c1ccc(-n2ncc(-c3ccc(Br)cc3)c2O)nc1` [Compound 2, Tert-butyl 6-(4-(4-bromophenyl)-5-hydroxy-1H-pyrazol-1-yl)nicotinate], in that order: at least 10000 nM and 100 to 1000 nM.
On to `CC(C)(C)OC(=O)c1ccc(-n2ncc(-c3ccc(Cl)cc3)c2O)nc1` [Compound 4, Tert-butyl 6-(4-(4-chlorophenyl)-5-hydroxy-1H-pyrazol-1-yl)nicotinate], for which the IC50 on full-length human PHD2 is 1000 to 10000 nM; against full-length human PHD1, 100 to 1000 nM.
For `CC(C)(C)OC(=O)c1ccc(-n2ncc(-c3ccc(F)cc3)c2O)nc1` [Compound 6, Tert-butyl 6-(4-(4-fluorophenyl)-5-hydroxy-1H-pyrazol-1-yl)nicotinate], in that order: 1000 to 10000 nM and below 100 nM.
For `N#Cc1ccc(-c2cnn(-c3ncc(C(=O)O)cc3F)c2O)cc1` [Compound 14, 6-(4-(4-cyanophenyl)-5-hydroxy-1H-pyrazol-1-yl)-5-fluoronicotinic acid], in that order: 1000 to 10000 nM and 1000 to 10000 nM.
For `Cc1nn(-c2ccc(C(=O)O)cn2)c(O)c1-c1ccc(Cl)cc1` [Compound 15], in that order: below 100 nM and below 100 nM.
For the compound `Cc1nc(-n2nc(C)c(-c3ccc(C#N)cc3)c2O)ccc1C(=O)O` [Compound 19, 6-(4-(4-cyanophenyl)-5-hydroxy-3-methyl-1H-pyrazol-1-yl)-2-methylnicotinic acid], the IC50 on full-length human PHD2 and at full-length human PHD1 was 1000 to 10000 nM throughout.
For `Cc1nn(-c2ccc(C(=O)O)cn2)c(O)c1-c1ccc(Cl)cn1` [Compound 20, 6-(4-(5-chloropyridin-2-yl)-5-hydroxy-3-methyl-1H-pyrazol-1-yl)nicotinic acid], the results for the IC50 on full-length human PHD2 and at full-length human PHD1 were 100 to 1000 nM and below 100 nM, respectively.
For `O=C(O)c1ccc(-n2ncc(-c3ccc(Cl)c(O)c3)c2O)nc1` [Compound 22, 6-(4-(4-chloro-3-hydroxyphenyl)-5-hydroxy-1H-pyrazol-1-yl)nicotinic acid] the same measures were below 100 nM and below 100 nM.
For `Cc1nn(-c2ccc(C(=O)O)cn2)c(O)c1-c1ccc(C#N)c(F)c1` [Compound 23, 6-(4-(4-cyano-3-fluorophenyl)-5-hydroxy-3-methyl-1H-pyrazol-1-yl)nicotinic acid] the same measures were below 100 nM and below 100 nM.
For `Cc1nn(-c2ccc(C(=O)O)cn2)c(O)c1-c1ccc(C#N)cc1F` [Compound 25, 6-(4-(4-cyano-2-fluorophenyl)-5-hydroxy-3-methyl-1H-pyrazol-1-yl)nicotinic acid], in that order: below 100 nM and below 100 nM.
In the case of `Cc1nn(-c2cc(N)c(C(=O)O)cn2)c(O)c1-c1ccc(C#N)cc1` [Compound 27, 4-amino-6-(4-(4-cyanophenyl)-5-hydroxy-3-methyl-1H-pyrazol-1-yl)nicotinic acid], the IC50 at full-length human PHD2 and at full-length human PHD1 was below 100 nM each time.
Consider `Cc1cc(-c2c(C)nn(-c3ccc(C(=O)O)cn3)c2O)ccc1C#N` [Compound 29, 6-(4-(4-cyano-3-methylphenyl)-5-hydroxy-3-methyl-1H-pyrazol-1-yl)nicotinic acid], for which the IC50 on full-length human PHD2 and at full-length human PHD1 was below 100 nM each time.
As to `N#Cc1ccc(-c2cnn(-c3ccc(C(=O)O)cn3)c2O)c(Cl)c1` [Compound 30, 6-(4-(2-chloro-4-cyanophenyl)-5-hydroxy-1H-pyrazol-1-yl)nicotinic acid], the IC50 on full-length human PHD2 and at full-length human PHD1 was below 100 nM in each case.
As to `Cc1cc(C#N)cc(C)c1-c1cnn(-c2ccc(C(=O)O)cn2)c1O` [Compound 31, 6-(4-(4-cyano-2,6-dimethylphenyl)-5-hydroxy-1H-pyrazol-1-yl)nicotinic acid], the IC50 at full-length human PHD2 was 100 to 1000 nM; at full-length human PHD1 it was below 100 nM.

(Values after patent US20230227426A1 (Akebia Therapeutics, Inc., priority 2020, published 2023).)
